Measurements: the NIST ThermoML archive (doi:10.1021/je0500577)
Numbers after ± are expanded uncertainties.

Columns and labels:
[1] = xn = mol fraction of the nth substance listed; settings: Drop volume
[2] = for surface tension liquid-gas: Drop volume; for mass density: 101.33 kPa, Liquid

BrC1CCCCC1 [bromocyclohexane] + CC1CCCO1
surface tension liquid-gas [mN/m], [1]
Settings | 298.15 K | 313.15 K
x1 = 0.042 | 24.87 ± 0.22 | 23.36 ± 0.22
x1 = 0.0933 | 25.28 ± 0.23 | 23.78 ± 0.22
x1 = 0.1942 | 26.13 ± 0.23 | 24.63 ± 0.22
x1 = 0.2908 | 26.95 ± 0.24 | 25.48 ± 0.23
x1 = 0.3921 | 27.82 ± 0.24 | 26.38 ± 0.23
x1 = 0.5072 | 28.82 ± 0.25 | 27.43 ± 0.24
x1 = 0.5896 | 29.55 ± 0.25 | 28.19 ± 0.24
x1 = 0.6994 | 30.58 ± 0.26 | 29.24 ± 0.25
x1 = 0.8173 | 31.75 ± 0.26 | 30.49 ± 0.26
x1 = 0.9043 | 32.65 ± 0.27 | 31.55 ± 0.26
x1 = 0.9247 | 32.86 ± 0.27 | 31.85 ± 0.26
x1 = 1 | 33.63 ± 0.28 | 32.98 ± 0.27

ClC1CCCCC1 [chlorocyclohexane]
[2]
Settings | mass density [kg/m3] | surface tension liquid-gas [mN/m]
298.15 K | 993.17 ± 0.53 | 31.05 ± 0.26
313.15 K | – | 29.44 ± 0.25

ClC1CCCCC1 [chlorocyclohexane] + C1CCOC1
surface tension liquid-gas [mN/m], [1]
Settings | 298.15 K | 313.15 K
x1 = 0.0361 | – | 25.39 ± 0.2
x1 = 0.0362 | 27.27 ± 0.21 | –
x1 = 0.0727 | – | 25.56 ± 0.2
x1 = 0.0728 | 27.43 ± 0.21 | –
x1 = 0.1434 | – | 25.88 ± 0.2
x1 = 0.1442 | 27.73 ± 0.21 | –
x1 = 0.2257 | – | 26.25 ± 0.21
x1 = 0.2258 | 28.07 ± 0.22 | –
x1 = 0.3114 | 28.43 ± 0.22 | 26.66 ± 0.21
x1 = 0.4061 | 28.82 ± 0.23 | 27.09 ± 0.22
x1 = 0.5071 | – | 27.52 ± 0.22
x1 = 0.5093 | 29.25 ± 0.23 | –
x1 = 0.6163 | 29.68 ± 0.24 | –
x1 = 0.6173 | – | 27.96 ± 0.23
x1 = 0.7351 | – | 28.42 ± 0.23
x1 = 0.7359 | 30.11 ± 0.24 | –
x1 = 0.8582 | – | 28.89 ± 0.24
x1 = 0.8602 | 30.54 ± 0.25 | –
x1 = 0.9267 | 30.77 ± 0.26 | –
x1 = 0.9291 | – | 29.16 ± 0.25
x1 = 1 | 31.05 ± 0.26 | 29.44 ± 0.25

ClC1CCCCC1 [chlorocyclohexane] + C1CCOCC1
surface tension liquid-gas [mN/m], [1]
Settings | 298.15 K | 313.15 K
x1 = 0.044 | – | 25.64 ± 0.23
x1 = 0.0446 | 27.44 ± 0.24 | –
x1 = 0.085 | 27.58 ± 0.24 | –
x1 = 0.0854 | – | 25.82 ± 0.23
x1 = 0.1668 | – | 26.17 ± 0.23
x1 = 0.1673 | 27.88 ± 0.24 | –
x1 = 0.2584 | 28.23 ± 0.24 | –
x1 = 0.259 | – | 26.55 ± 0.23
x1 = 0.3519 | 28.62 ± 0.25 | –
x1 = 0.3527 | – | 26.94 ± 0.24
x1 = 0.4499 | – | 27.33 ± 0.24
x1 = 0.4501 | 29.01 ± 0.25 | –
x1 = 0.5511 | 29.41 ± 0.25 | –
x1 = 0.5923 | – | 27.91 ± 0.24
x1 = 0.6578 | – | 28.17 ± 0.24
x1 = 0.658 | 29.82 ± 0.25 | –
x1 = 0.7676 | 30.24 ± 0.26 | –
x1 = 0.7693 | – | 28.6 ± 0.25
x1 = 0.8744 | 30.62 ± 0.26 | –
x1 = 0.8809 | – | 29.02 ± 0.25
x1 = 0.9385 | – | 29.22 ± 0.25
x1 = 0.9393 | 30.84 ± 0.26 | –
x1 = 1 | 31.05 ± 0.26 | 29.44 ± 0.25

ClC1CCCCC1 [chlorocyclohexane] + CC1CCC(C)O1
[1], x1 = 1
Settings | surface tension liquid-gas [mN/m]
298.15 K | 31.05 ± 0.26
313.15 K | 29.44 ± 0.25

ClC1CCCCC1 [chlorocyclohexane] + CC1CCCO1
surface tension liquid-gas [mN/m], [1]
Settings | 298.15 K | 313.15 K
x1 = 0.0434 | – | 23.23 ± 0.22
x1 = 0.0471 | 24.85 ± 0.22 | –
x1 = 0.0868 | – | 23.44 ± 0.22
x1 = 0.0884 | 25.11 ± 0.23 | –
x1 = 0.1719 | – | 23.93 ± 0.22
x1 = 0.1722 | 25.63 ± 0.23 | –
x1 = 0.2652 | 26.2 ± 0.23 | –
x1 = 0.2653 | – | 24.47 ± 0.22
x1 = 0.3536 | – | 25 ± 0.23
x1 = 0.3605 | 26.81 ± 0.24 | –
x1 = 0.4587 | 27.44 ± 0.24 | –
x1 = 0.4591 | – | 25.65 ± 0.23
x1 = 0.5615 | 28.15 ± 0.24 | –
x1 = 0.5618 | – | 26.31 ± 0.23
x1 = 0.6654 | 28.86 ± 0.25 | –
x1 = 0.6677 | – | 27.03 ± 0.24
x1 = 0.7734 | – | 27.78 ± 0.24
x1 = 0.7761 | 29.62 ± 0.25 | –
x1 = 0.8805 | – | 28.58 ± 0.25
x1 = 0.8856 | 30.34 ± 0.26 | –
x1 = 0.9404 | – | 29 ± 0.25
x1 = 0.9418 | 30.7 ± 0.26 | –
x1 = 1 | 31.05 ± 0.26 | 29.44 ± 0.25

C1CCOC1 [tetrahydrofuran]
[2]
Settings | mass density [kg/m3] | surface tension liquid-gas [mN/m]
298.15 K | 882.1 ± 0.45 | 27.12 ± 0.21
313.15 K | – | 25.24 ± 0.2

C1CCOC1 [tetrahydrofuran] + BrC1CCCCC1
[1], x2 = 0
Settings | surface tension liquid-gas [mN/m]
298.15 K | 27.12 ± 0.21
313.15 K | 25.24 ± 0.2

C1CCOC1 [tetrahydrofuran] + ClC1CCCCC1
[1], x2 = 0
Settings | surface tension liquid-gas [mN/m]
298.15 K | 27.12 ± 0.21
313.15 K | 25.24 ± 0.2

C1CCOCC1 [tetrahydropyran]
[2]
Settings | mass density [kg/m3] | surface tension liquid-gas [mN/m]
298.15 K | 878.82 ± 0.61 | 27.29 ± 0.24
313.15 K | – | 25.46 ± 0.23

C1CCOCC1 [tetrahydropyran] + BrC1CCCCC1
[1], x2 = 0
Settings | surface tension liquid-gas [mN/m]
298.15 K | 27.29 ± 0.24
313.15 K | 25.46 ± 0.23

C1CCOCC1 [tetrahydropyran] + ClC1CCCCC1
[1], x2 = 0
Settings | surface tension liquid-gas [mN/m]
298.15 K | 27.29 ± 0.24
313.15 K | 25.46 ± 0.23
